{"source": "patent US20150315218A1", "about": "“SALTS OF PRODRUGS OF PIPERAZINE AND SUBSTITUTED PIPERIDINE ANTIVIRAL AGENTS” (Bristol-Myers Squibb Company, priority 2004, published 2015)", "key": {"[1]": {"experiment": "Single-dose toxicokinetic and tolerability study of prodrugs in dogs", "type": "in vivo, dog", "conditions": "female, dog, plasma; for concentration at 24 h: oral, read-out: C24 h; for Cmax / AUC(0-inf) / half-life: po; for half-life: read-out: T½ (converted)", "description": "A multi-phase study was conducted to evaluate the tolerability of the prodrug, Iab (monolysine salt) at dosages of 24, 90, or 240 mg/kg (free acid, molar equivalent to 19, 71, or 190 mg/kg of parent IVa, respectively) and the toxicokinetics of lab and IVa (4). Iab was administered to two female dogs/group once daily either as an aqueous solution (24 or 90 mg/kg) or dry-filled capsules (24, 90 [once and twice daily] or 240 mg/kg). The endpoints were: clinical signs, body weight, food consumption, and plasma toxicokinetics of lab and IVa. In all cases, a 1-week washout period was used between doses for all phases of the study. […]\nOn day 1, Icb was administered to one dog/sex/group once daily in dry-filled capsules at the above dosages. A 1-week washout period was used between doses in the study. On day 8, Icb was administered to one dog/sex/group once daily as an aqueous solution at 25 mg/kg or twice daily in dry-filled capsules at 46 or 125 mg/kg BID."}, "[2]": {"experiment": "IV and PO pharmacokinetic studies of prodrug salts (Iab, Ibb, Icb) in the rat, with historical parent data", "type": "in vivo, Sprague-Dawley rats", "conditions": "for Tmax: read-out: Tmax (hr), PO; for Cmax: read-out: Cmax (μM), PO", "description": "(§1) All blood samples (0.3 mL) were colleted in microtainers containing K2EDTA (Becton Dickinson, Franklin Lakes, N.J.) and placed on chipped ice. After centrifugation, plasma was separated and stored at −20° C. until analysis. The mono-lysine salt of Iab (Form 3, Lot 1) was used for the pharmacokinetic studies. The dosing solutions of Iab were prepared in either sterile water (for IV administration in dogs and monkeys) or distilled water (for all other dose administration).\nMale Sprague-Dawley rats (300-350 g, Hilltop Lab Animals, Inc., Scottsdale, Pa.) with cannulas implanted in the jugular vein were used. The rats were fasted overnight in the PO pharmacokinetic studies. Blood samples were collected from the jugular vein.\nIn the IV study, Iab was delivered at 1.4 mg/kg (free acid, or 1.1 mg/kg of IVa equivalent) as a bolus over 0.5 min (n=3).\nIn the PO study, Iab was administered at 7.9 mg/kg (free acid, or 6.3 mg/kg of IVa equivalent) by oral gavage (n=3). The concentration of the dosing solution was 4.0 mg/mL, and the dosing volume was 2 mL/kg.\nThe pharmacokinetic parameters of Iab and IVa were calculated by Non-Compartmental Analysis using the […]™ software program (version 4.0.2, InnaPhase Co., Philadelphia, Pa.). The Cmax and Tmax values were recorded directly from experimental observations. The AUC0-n and AUCtot values were calculated using the mixed log-linear trapezoidal summations. The total body clearance (Cl), mean residence time (MRT), and the steady state volume of distribution (Vss) were also calculated after intravenous administration. The absolute oral bioavailability (expressed as %) was estimated by taking the ratio of dose-normalized AUC values after oral doses to those after intravenous doses.\nas §1, with “Ibb” for “Iab”, “3)” for “3, Lot 1)”\n(§2) The Cmax and Tmax values were recorded directly from experimental observations. The AUC0-n and AUCtot values were calculated using the mixed log-linear trapezoidal summations. The total body clearance (Cl), mean residence time (MRT), and the steady state volume of distribution (Vss) were also calculated after intravenous administration. The absolute oral bioavailability (expressed as %) was estimated by taking the ratio of dose-normalized AUC values after oral doses to those after intravenous doses.\nIn the IV study, Icb was delivered at 1.4 mg/kg (free acid, or 1.1 mg/kg of IVe equivalent) as a bolus over 0.5 min (n=3).\nIn the PO study, Icb was administered at 6.9 mg/kg (free acid, or 5.6 mg/kg of IVe equivalent) by oral gavage (n=3).\nas §2"}, "[3]": {"conditions": "24 mg/kg, IVa, Iab 24 mg/kg Dry-filled capsule, Dogs #4201, #4202"}, "[4]": {"conditions": "24 mg/kg, IVa, Iab 24 mg/kg Solution, Dogs #1201, #1202"}, "[5]": {"conditions": "90 mg/kg, IVa, Iab 90 mg/kg Solution, Dogs #3201, #3202"}, "[6]": {"conditions": "90 mg/kg, Table 14: 90 mg/kg, Dogs #1201, #1202"}, "[7]": {"conditions": "240 mg/kg, Table 14: 240 mg/kg, Dogs #2201, #2202"}}, "note": "Where two headings read alike, the source gives them in different places. Marks after values point to notes of the source that are not given here.", "data": [{"smiles": "COc1ncc(OC)c2c(C(=O)C(=O)N3CCN(C(=O)c4ccccc4)CC3)c[nH]c12", "note": "[IVa, N-(benzoyl)-N′-[(4,7-dimethoxy-6-azaindol-3-yl)-oxoacetyl]piperazine]", "values": [{"measurement": "concentration at 24 h", "setting": "[1]; [3]", "value": 1.4, "unit": "µM"}, {"measurement": "concentration at 24 h", "setting": "[1]; [4]", "value": 0.61, "unit": "µM"}, {"measurement": "concentration at 24 h", "setting": "[1]; [5]", "value": 3.2, "unit": "µM"}, {"measurement": "concentration at 24 h", "setting": "[1]; Table 14: 180 (90 BID) mg/kg, Dogs #3201, #3202", "value": 34, "unit": "µM"}, {"measurement": "Cmax", "setting": "[1]; 24 mg/kg, IVa in female dogs, Iab 24 mg/kg (19 IVa equiv.), Dry-filled capsule, Dogs #4201, #4202", "value": 79.7, "unit": "µM"}, {"measurement": "Cmax", "setting": "[1]; 24 mg/kg, IVa in female dogs, Iab 24 mg/kg (19 IVa equiv.), Solution, Dogs #1201, #1202", "value": 72.3, "unit": "µM"}, {"measurement": "AUC(0-inf)", "setting": "[1]; [3]", "value": 486, "unit": "µM·h"}, {"measurement": "half-life", "setting": "[1]; [3]", "value": 4.2, "unit": "h"}, {"measurement": "AUC(0-inf)", "setting": "[1]; [4]", "value": 465, "unit": "µM·h"}, {"measurement": "half-life", "setting": "[1]; [4]", "value": 3.2, "unit": "h"}, {"measurement": "Cmax", "setting": "[1]; 90 mg/kg, IVa in female dogs, Iab 90 mg/kg (71 IVa equiv.), Solution, Dogs #3201, #3202", "value": 124, "unit": "µM"}, {"measurement": "AUC(0-inf)", "setting": "[1]; [5]", "value": 844, "unit": "µM·h"}, {"measurement": "half-life", "setting": "[1]; [5]", "value": 4.4, "unit": "h"}, {"measurement": "AUC(0-inf)", "setting": "[1]; [6]", "value": 1740, "unit": "µM·h"}, {"measurement": "half-life", "setting": "[1]; [6]", "value": 3.6, "unit": "h"}, {"measurement": "Cmax", "setting": "[1]; 90 mg/kg, Table 14: IVa in female dogs, 90 mg/kg (71 IVa equiv.), Formulation Solution, Dogs #1201, #1202", "value": 214, "unit": "µM"}, {"measurement": "Cmax", "setting": "[1]; 240 mg/kg, Table 14: 240 mg/kg (190 IVa equiv.), Formulation Solution, Dogs #2201, #2202", "value": 172, "unit": "µM"}, {"measurement": "AUC(0-inf)", "setting": "[1]; [7]", "value": 1190, "unit": "µM·h"}, {"measurement": "half-life", "setting": "[1]; [7]", "value": 3.7, "unit": "h"}, {"measurement": "Cmax", "setting": "[1]; Table 14: 180 (90 BID) mg/kg (142 IVa equiv.), Dry-filled capsule, Dogs #3201, #3202", "value": 311, "unit": "µM"}, {"measurement": "AUC(0-inf)", "setting": "[1]; Table 14: 180 (90 BID) mg/kg, Dogs #3201 (AUC from zero to 24 h), #3202", "value": 3300, "unit": "µM·h"}, {"measurement": "AUC", "setting": "[2]; Sprague-Dawley, plasma, historical parent, IV 1 mg/kg, read-out: AUCtot (μM·hr), IV", "value": "3.3 ± 1.1", "unit": "µM·h"}, {"measurement": "MRT", "setting": "[2]; Sprague-Dawley, plasma, historical parent, IV 1 mg/kg, read-out: MRT (hr), IV", "value": "2.2 ± 1.5", "unit": "h"}, {"measurement": "Vd", "setting": "[2]; Sprague-Dawley, plasma, historical parent, IV 1 mg/kg, read-out: Vdss (L/kg), IV", "value": "1.5 ± 0.25", "unit": "L/kg"}, {"measurement": "half-life", "setting": "[2]; Sprague-Dawley, plasma, historical parent, IV 1 mg/kg, read-out: t1/2 (hr), IV (converted)", "value": "2.4 ± 0.32", "unit": "h"}, {"measurement": "Tmax", "setting": "[2]; Sprague-Dawley, plasma, historical parent, PO 5 mg/kg", "value": 2, "unit": "h"}, {"measurement": "half-life", "setting": "[2]; Sprague-Dawley, plasma, historical parent, PO 5 mg/kg, read-out: t1/2 (hr), PO (converted)", "value": "1.7 ± 0.92", "unit": "h"}, {"measurement": "CLtot (mL/min/kg), IV", "setting": "[2]; historical parent, IV 1 mg/kg", "value": "13 ± 4.0", "unit": "mL/min/kg"}, {"measurement": "AUCtot (μM·hr), PO", "setting": "[2]; historical parent, PO 5 mg/kg", "value": "15 ± 6.3", "unit": "µM·h"}, {"measurement": "Bioavailability (%)", "setting": "[2]; historical parent, PO 5 mg/kg", "value": 90, "unit": "%"}, {"measurement": "Cmax", "setting": "[2]; historical parent, PO 5 mg/kg", "value": "4.5 ± 1.5", "unit": "µM"}, {"measurement": "AUC", "setting": "[2]; male, Sprague-Dawley, plasma, 7.9 mg/kg, after oral prodrug, analyte = label, ND = not detected (<5 nM), read-out: AUCtot (μM·hr), PO", "value": "13 ± 1.4", "unit": "µM·h"}, {"measurement": "Cmax", "setting": "[2]; male, Sprague-Dawley, plasma, 7.9 mg/kg, after oral prodrug, analyte = label, ND = not detected (<5 nM)", "value": "3.9 ± 0.98", "unit": "µM"}, {"measurement": "half-life", "setting": "[2]; male, Sprague-Dawley, plasma, 7.9 mg/kg, parent after oral prodrug, read-out: t1/2 (hr), PO (converted)", "value": "1.5 ± 0.24", "unit": "h"}, {"measurement": "AUC", "setting": "[2]; male, Sprague-Dawley, plasma, after IV prodrug (~1 mg/kg parent equivalent), analyte = label, read-out: AUCtot (μM·hr), IV", "value": "5.4 ± 0.93", "unit": "µM·h"}, {"measurement": "half-life", "setting": "[2]; male, Sprague-Dawley, plasma, after IV prodrug, analyte = label, read-out: t1/2 (hr), IV (converted)", "value": "4.4 ± 1.9", "unit": "h"}, {"measurement": "bioavailability", "setting": "[2]; male, Sprague-Dawley, plasma, oral prodrug, calculated from historical IV data of parent, read-out: Bioavailability (%) of parent from prodrug", "value": 62, "unit": "%"}, {"measurement": "Tmax", "setting": "[2]; male, Sprague-Dawley, plasma, parent after oral prodrug (~5-6 mg/kg parent equivalent)", "value": 0.83, "unit": "h"}, {"measurement": "PO AUC Ratio of parent", "setting": "[2]; oral prodrug vs historical parent", "value": "0.69*"}, {"measurement": "bioavailability", "setting": "[2]; plasma, po, range over rats, dogs and monkeys, read-out: oral bioavailabilities of parent after administration of prodrug", "value": "62 to 94", "unit": "%"}]}]}
